TGI and GI50 data for seven molecules are collected here from PubChem BioAssay (NCI).

Test in all cases: DTP human tumour cell line panel, 48 h
For assay [1], the system named is LOX IMVI melanoma.
The test system of assay [2] is RXF 393 renal.
In assay [3] the test system is A549 NSCLC.
The test system of assay [4] is HT29 colon.
For assay [5], the system named is IGROV1 ovarian.
The subject of assay [6] is SN12C renal.
The test system of assay [7] is OVCAR-3 ovarian.
Assay [8] deals with SK-MEL-28 melanoma.
In assay [9] the test system is SNB-75 CNS.
Assay [10] concerns OVCAR-8 ovarian.
Assay [11] relates to CCRF-CEM leukemia.
For assay [12], the system named is K-562 leukemia.

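Test compounds were applied to cells in 96-well plates for 48 hours at 5 doses. Here, GI50 denotes the concentration required for 50% inhibition of growth. TGI: total growth inhibition.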

Regarding `CCN(CC)CCO[Si](OCCN(CC)CC)(OCCN(CC)CC)OCCN(CC)CC`, the concentration for total growth inhibition (TGI) in assay [1], in assay [2], in [3], in assay [4], in [5] and in assay [6] was greater than 100 µM in each case. In addition, the concentration for total growth inhibition (TGI) in assay [7], in assay [8], in assay [9] and in [10] was greater than 100 µM throughout.

Take `O=C(CCC1CCCCN1)Nc1ccc2c(c1)C(=O)c1ccc(NC(=O)CCN3CCCCC3)cc1C2=O` (stereo unspecified): the total growth inhibition concentration (TGI) in assay [1] was found to be 2.66 µM; in [2], 2.07 µM; in assay [3] it was 33.4 µM; in assay [4] it was 10.8 µM; in assay [5] it was 31.2 µM; in [6] it was 4.34 µM. For the same molecule, the total growth inhibition concentration (TGI) in [11] was 4.86 µM; in [7], 8.37 µM; in assay [12], 4.97 µM; in [8], 3.77 µM; in [9], 16.4 µM; in [10], 9.73 µM. Besides, the GI50 in assay [11] was 1.12 µM.

In the case of `COC(=O)C1c2cc3c(c(O)c2C(O)CC1(C)O)C(=O)c1c(O)cc2c(c1C3=O)OC1OC2(C)C(O)C(N(C)C)C1O` (stereo unspecified), the concentration for total growth inhibition (TGI) in assay [2] was greater than 100 µM; in assay [5] it was greater than 39.7 µM; in assay [11], greater than 100 µM; in assay [7], greater than 100 µM; in assay [12], greater than 100 µM; in assay [9], greater than 20.9 µM. The concentration for total growth inhibition (TGI) in assay [10] is greater than 100 µM.

For `NC(=O)Oc1ccccc1`, the TGI in assay [1], in assay [2], in [3], in assay [4], in assay [6] and in assay [11] was greater than 100 µM throughout. In addition, the total growth inhibition concentration (TGI) in assay [7], in assay [12], in [8], in assay [9] and in assay [10] was greater than 100 µM throughout.

Take `CC1OC(=O)C(C(C)C)NC(=O)C(C(C)C)OC(=O)C(C(C)C)NC(=O)C(C)OC(=O)C(C(C)C)NC(=O)C(C(C)C)OC(=O)C(C(C)C)NC(=O)C(C)OC(=O)C(C(C)C)NC(=O)C(C(C)C)OC(=O)C(C(C)C)NC1=O` (stereo unspecified): the 50% growth inhibitory concentration (GI50) in assay [1] was less than 0.0001 µM; in [4], less than 0.0001 µM; in assay [6], 0.00019 µM; in assay [7] it was less than 0.0001 µM; in [12] it was less than 0.0001 µM; in [8], less than 0.0001 µM. In addition, in assay [10], the GI50 is less than 0.0001 µM. For the same molecule, the TGI in [2] was 0.328 µM; in [3], 2.98 µM; in assay [4], 3.4 µM; in assay [5], 5.34 µM; in assay [6], 0.233 µM; in assay [11], 4.2 µM. For the same molecule, the TGI in [7] was 0.0148 µM; in assay [12], 6.36 µM; in assay [8], 5.63 µM; in assay [9], 0.00378 µM; in assay [10] it was 3.46 µM.

In the case of `CCOC(C)OC1CC(n2cc(C)c(=O)[nH]c2=O)OC1CO` (stereo unspecified), the total growth inhibition concentration (TGI) in [1], in assay [2], in assay [3], in [4], in assay [5] and in assay [6] was greater than 100 µM throughout. The total growth inhibition concentration (TGI) in assay [11], in assay [7], in [12], in assay [8] and in [10] was greater than 100 µM throughout.

In the case of `CN1CN(C(=O)N2CN(C)C(=O)N(C)C2)CN(C)C1=O`, the TGI in assay [1], in assay [3], in assay [4], in assay [5], in assay [6] and in assay [11] was greater than 100 µM throughout. Further, the TGI in assay [7], in [12], in assay [8], in assay [9] and in assay [10] was greater than 100 µM in each case.

The TGI is the concentration at which net growth stops. For orientation: GI50 means the concentration that inhibits growth by half.
